Source: patent US20220324835A1 (Nurix Therapeutics, Inc., priority 2018, published 2022)

Key:
Cbl-b [1] = molecular target: T1, Cbl-b (Homo sapiens, UniProt Q13191); experiment: Cbl-b inhibition assay (Cbl-b activity assay, FRET, Biological Example 1; 100 mM NaCl, 60 nM Src kinase); assay type: biochemical; details: upper bound stated in text lists; read-out: IC50 values in the Cbl-b inhibition assay of Biological Example 1
Method in brief: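 Steps: Src kinase phosphorylates N-terminal biotinylated Avi-tagged Cbl-b; phosphorylated Cbl-b binds Bodipy-fluorescein ubiquitin-loaded UbcH5B; streptavidin-terbium on Cbl-b sits close to the fluorescein label, producing FRET. Inhibitors block UbcH5B-Ub binding.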

Cbl-b [2] = molecular target: T1, Cbl-b; experiment: Cbl-b activity assay (Cbl-b inhibition assay), TR-FRET of Cbl-b interaction with UbcH5B-Ub; assay type: biochemical
Method in brief: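 UbcH5B (C85K) conjugated to N-terminally Bodipy-Fluorescein-labeled ubiquitin served as the fluorescent partner. After compound preincubation, Src kinase (60 nM) with 1 mM ATP and 5 mM MgCl2 (final) was added for 1.5 h, followed by a further 1 h incubation. Some values were obtained with 50 mM NaCl and 30 nM Src.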

Cbl-b (residues 36-427) = Cbl-b (residues 36-427) (Homo sapiens, UniProt Q13191); experiment: Cbl-b binding assay (SPR, Biacore T200); details: 20° C., 1:1 binding model
Protocol: SPR data was collected on a Biacore T200 (GE Healthcare) using a NeutrAvidin (Invitrogen) capture surface that was generated on a polycarboxylate hydrogel sensor chip of medium charge density (XanTec Bioanalytics GmbH) at 20° C. The surface was prepared using 20 mM HEPES, pH 7.5, 100 mM NaCl, 0.5 mM TCEP, 0.01% Triton X-100 as the immobilization buffer. Neutravidin was coupled to the sensor chip through EDC/NHS amine coupling. All steps were performed using a flow rate of 10 μl/min. First, the chip was preconditioned with a 3-min injection of 1 M NaCl, 0.1 M Borate followed by a 10-min equilibration in immobilization buffer. The surface was activated by a 5-min injection of 100 mM EDC/50 mM NHS. Next, 250 μg/mL NeutrAvidin buffered in 10 mM sodium acetate buffer, pH 5.0 was injected over the surface for 2 min. The surface was deactivated with 1 M Tris, pH 8.5 for 7 min then re-equilibrated in immobilization buffer for 7 min. […] Flow cell 1 served as a reference surface and was prepared without protein. All binding measurements were made in 20 mM HEPES, pH 7.5, 100 mM NaCl, 0.5 mM TCEP, 0.01% Triton X-100, 2% DMSO (referred as assay buffer) at 20° C. Compounds, prepared in assay buffer, were diluted from atop concentration of either 100 μM or 50 μM using either a 2- or 3-fold dilution scheme containing 8 or 10 points. Samples were injected for 50 s at 50 μl/min. Dissociation time varied from 90-180 s, depending on anticipated potency. The surface was regenerated by injection of 0.3 M NaCl, prepared in assay buffer for 20 s at 10 μl/min. Positive and negative control samples were run between each compound to monitor surface integrity.
Column marked with an asterisk (*) were tested as described above with assay buffer containing 50 mM NaCl instead of 100 mM NaCl and 30 nM Src kinase instead of 60 nM Src kinase. The resulting data for the Cbl-b binding assay was solvent corrected and double referenced prior to analysis. All data were globally fit to a steady-state affinity and kinetic binding model where applicable). Fit parameters were derived from a 1:1 binding model using the Biacore T200 Evaluation Software V2.0 (GE Healthcare) (Table 2).

[3] = assay buffer with 100 mM NaCl, 60 nM Src kinase, read-out: Cbl-b activity IC50
[4] = * assay buffer containing 50 mM NaCl instead of 100 mM NaCl and 30 nM Src kinase instead of 60 nM, read-out: Cbl-b activity IC50 (μM)*

T1 sequence (Q13191 36-427): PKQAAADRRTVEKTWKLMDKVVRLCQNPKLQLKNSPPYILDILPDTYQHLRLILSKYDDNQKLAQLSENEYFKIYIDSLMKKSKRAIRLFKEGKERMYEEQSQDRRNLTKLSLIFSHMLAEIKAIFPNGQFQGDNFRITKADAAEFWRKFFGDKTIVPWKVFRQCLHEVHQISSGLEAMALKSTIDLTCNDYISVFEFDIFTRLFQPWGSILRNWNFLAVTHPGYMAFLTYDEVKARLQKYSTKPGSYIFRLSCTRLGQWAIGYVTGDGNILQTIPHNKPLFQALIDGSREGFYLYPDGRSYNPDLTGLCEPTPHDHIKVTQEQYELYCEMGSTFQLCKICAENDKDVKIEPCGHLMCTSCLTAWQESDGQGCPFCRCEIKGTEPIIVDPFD
Sequence of Cbl-b (residues 36-427) (Q13191 36-427): as above

CC(=O)Nc1ccnc(C(=O)Nc2cccc([C@H](C)Sc3nncn3C)c2)c1 [Compound 59, (S)-4-acetamido-N-(3-(1-((4-methyl-4H-1,2,4-triazol-3-yl)thio)ethyl)phenyl)picolinamide]
IC50 (Cbl-b [1]): ≤ 10 µM
IC50 (Cbl-b [2]; [3]): 1 to 3 µM
Kd (Cbl-b (residues 36-427)): 3 to 10 µM

C[C@H](Sc1nncn1C)c1cccc(NC(=O)c2cc(C(=O)N3CCCCC3)ccn2)c1 [Compound 144, (S)-N-(3-(1-((4-methyl-4H-1,2,4-triazol-3-yl)thio)ethyl)phenyl)-4-(piperidine-1-carbonyl)picolinamide]
IC50 (Cbl-b [1]): ≤ 10 µM
IC50 (Cbl-b [2]; [3]): 3 to 10 µM
Kd (Cbl-b (residues 36-427)): 3 to 10 µM

C[C@H](Sc1nncn1C)c1ccnc(NC(=O)c2cccc(S(F)(F)(F)(F)F)c2)c1 [Compound 116, N-[4-[(1S)-1-[(4-methyl-1,2,4-triazol-3-yl)sulfanyl]ethyl]-2-pyridyl]-3-(pentafluoro-λ^6-sulfanyl)benzamide]
IC50 (Cbl-b [1]): ≤ 10 µM
IC50 (Cbl-b [2]; [3]): 3 to 10 µM
Kd (Cbl-b (residues 36-427)): 3 to 10 µM

C[C@H](Cc1nccn1C)c1cccc(NC(=O)c2cc(C(=O)N3CC[C@H](O)C3)ccn2)c1 [Compound 252a, 4-((S)-3-hydroxypyrrolidine-1-carbonyl)-N-(3-((R)-1-(1-methyl-1H-imidazol-2-yl)propan-2-yl)phenyl)picolinamide]
IC50 (Cbl-b [1]): ≤ 10 µM
IC50 (Cbl-b [2]; [3]): 1 to 3 µM
Kd (Cbl-b (residues 36-427)): 3 to 10 µM

C[C@H](Cc1nncn1C)c1cccc(NC(=O)c2cc(C(=O)N3CC[C@H](O)C3)ccc2F)c1 [Compound 254, 2-fluoro-5-((S)-3-hydroxypyrrolidine-1-carbonyl)-N-(3-((R)-1-(4-methyl-4H-1,2,4-triazol-3-yl)propan-2-yl)phenyl)benzamide]
IC50 (Cbl-b [1]): ≤ 10 µM
IC50 (Cbl-b [2]; [3]): 1 to 3 µM
Kd (Cbl-b (residues 36-427)): 3 to 10 µM

C[C@H](Sc1nncn1C)c1cccc(NC(=O)c2cc(C(=O)N3CCC3)ccn2)c1 [Compound 143, (S)-4-(azetidine-1-carbonyl)-N-(3-(1-((4-methyl-4H-1,2,4-triazol-3-yl)thio)ethyl)phenyl)picolinamide]
IC50 (Cbl-b [1]): ≤ 10 µM
IC50 (Cbl-b [2]; [3]): 3 to 10 µM
Kd (Cbl-b (residues 36-427)): 3 to 10 µM

C[C@@H](Sc1nncn1C)c1cc(F)cc(N2Cc3c(cccc3C(F)(F)F)C2=O)c1 [Compound 168b, 2-[3-fluoro-5-[(1R)-1-[(4-methyl-1,2,4-triazol-3-yl)sulfanyl]ethyl]phenyl]-4-(trifluoromethyl)isoindolin-1-one]
IC50 (Cbl-b [1]): ≤ 10 µM
IC50 (Cbl-b [2]; [3]): 1 to 3 µM
Kd (Cbl-b (residues 36-427)): 1 to 3 µM

C[C@H](Sc1nncn1C)c1cccc(NC(=O)c2cccc(CF)n2)c1 [Compound 87, 6-(fluoromethyl)-N-[3-[(1S)-1-[(4-methyl-1,2,4-triazol-3-yl)sulfanyl]ethyl]phenyl]pyridine-2-carboxamide]
IC50 (Cbl-b [1]): ≤ 10 µM
IC50 (Cbl-b [2]; [3]): 1 to 3 µM
Kd (Cbl-b (residues 36-427)): 1 to 3 µM

C[C@@H](Cc1nncn1C)c1cccc(NC(=O)c2cc(S(C)(=O)=O)cc(C3CC3)n2)c1 [Compound 198b]
IC50 (Cbl-b [1]): ≤ 10 µM
IC50 (Cbl-b [2]; [3]): 3 to 10 µM
Kd (Cbl-b (residues 36-427)): 3 to 10 µM

C[C@H](Sc1nncn1C1CC1)c1cccc(NC(=O)c2cc3ccccc3cn2)c1 [Compound 99, (S)-N-(3-(1-((4-cyclopropyl-4H-1,2,4-triazol-3-yl)thio)ethyl)phenyl)isoquinoline-3-carboxamide]
IC50 (Cbl-b [1]): ≤ 1 µM
IC50 (Cbl-b [2]; [4]): 3 to 10 µM
IC50 (Cbl-b [2]; [3]): 0.301 to 1 µM
Kd (Cbl-b (residues 36-427)): 3 to 10 µM

C[C@H](Cc1nncn1C)c1cccc(NC(=O)c2cc(C(=O)N3CCC4(COC4)C3)ccn2)c1 [Compound 233, N-[3-[(2R)-1-(4-methyl-4H-1,2,4-triazol-3-yl)propan-2-yl]phenyl]-4-[2-oxa-6-azaspiro[3.4]octane-6-carbonyl]pyridine-2-carboxamide]
IC50 (Cbl-b [1]): ≤ 10 µM
IC50 (Cbl-b [2]; [3]): 3 to 10 µM
Kd (Cbl-b (residues 36-427)): 3 to 10 µM

CC(Sc1nncn1C)c1cc(NC2CCOC2)nc(N2Cc3c(cccc3C(F)(F)F)C2=O)c1 (centres unmarked) [Compound 179, 2-(4-(1-((4-methyl-4H-1,2,4-triazol-3-yl)thio)ethyl)-6-((tetrahydrofuran-3-yl)amino)pyridin-2-yl)-4-(trifluoromethyl)isoindolin-1-one]
IC50 (Cbl-b [1]): ≤ 10 µM
IC50 (Cbl-b [2]; [3]): 3 to 10 µM
Kd (Cbl-b (residues 36-427)): 3 to 10 µM

C[C@H](Cc1nncn1C)c1cccc(NC(=O)c2cc(C(=O)N3CCNCC3)ccn2)c1 [Compound 242, (R)-N-(3-(1-(4-methyl-4H-1,2,4-triazol-3-yl)propan-2-yl)phenyl)-4-(piperazine-1-carbonyl)picolinamide]
IC50 (Cbl-b [1]): ≤ 10 µM
IC50 (Cbl-b [2]; [3]): 3 to 10 µM
Kd (Cbl-b (residues 36-427)): 3 to 10 µM

C[C@H](Cc1nncn1C)c1cccc(NC(=O)c2cc(C(F)(F)F)ccn2)c1 [Compound 184, (R)-N-(3-(1-(4-methyl-4H-1,2,4-triazol-3-yl)propan-2-yl)phenyl)-4-(trifluoromethyl)picolinamide]
IC50 (Cbl-b [1]): ≤ 10 µM
IC50 (Cbl-b [2]; [3]): 1 to 3 µM
Kd (Cbl-b (residues 36-427)): 3 to 10 µM

C[C@H](Cc1nncn1C)c1ccnc(NC(=O)c2ccc3ccccc3n2)c1 [Compound 303, (R)-N-(4-(1-(4-methyl-4H-1,2,4-triazol-3-yl)propan-2-yl)pyridin-2-yl)quinoline-2-carboxamide]
IC50 (Cbl-b [1]): ≤ 1 µM
IC50 (Cbl-b [2]; [3]): 0.301 to 1 µM
Kd (Cbl-b (residues 36-427)): 3 to 10 µM

C[C@H](Sc1nncn1C)c1ccc(F)c(N2Cc3c(cccc3C(F)(F)F)C2=O)c1 [Compound 169, 2-[2-fluoro-5-[(1S)-1-[(4-methyl-1,2,4-triazol-3-yl)sulfanyl]ethyl]phenyl]-4-(trifluoromethyl)isoindolin-1-one]
IC50 (Cbl-b [1]): ≤ 10 µM
IC50 (Cbl-b [2]; [3]): 1 to 3 µM
Kd (Cbl-b (residues 36-427)): 1 to 3 µM

CCCOc1cc([C@H](C)Cc2nncn2C)cc(N2Cc3c(cccc3C(F)(F)F)C2=O)n1 [Example 688, (R)-2-(4-(1-(4-methyl-4H-1,2,4-triazol-3-yl)propan-2-yl)-6-propoxy-pyridin-2-yl)-4-(trifluoromethyl)isoindolin-1-one]
IC50 (Cbl-b [1]): ≤ 1 µM
IC50 (Cbl-b [2]; [3]): 0.301 to 1 µM
Kd (Cbl-b (residues 36-427)): 1 to 3 µM

CN[C@@H]1CCN(C(=O)c2ccnc(C(=O)Nc3cccc([C@H](C)Cc4nncn4C)c3)c2)C1 [Compound 249, N-(3-((R)-1-(4-methyl-4H-1,2,4-triazol-3-yl)propan-2-yl)phenyl)-4-((R)-3-(methylamino)pyrrolidine-1-carbonyl)picolinamide]
IC50 (Cbl-b [1]): ≤ 10 µM
IC50 (Cbl-b [2]; [3]): 1 to 3 µM
Kd (Cbl-b (residues 36-427)): 1 to 3 µM

COc1ccc(C(C)Sc2nncn2C)cc1NC(=O)c1ccc2ccccc2n1 (centres unmarked) [Compound 97, N-(2-methoxy-5-(1-((4-methyl-4H-1,2,4-triazol-3-yl)thio)ethyl)phenyl)quinoline-2-carboxamide]
IC50 (Cbl-b [1]): ≤ 10 µM
IC50 (Cbl-b [2]; [4]): 1 to 3 µM
IC50 (Cbl-b [2]; [3]): 1 to 3 µM
Kd (Cbl-b (residues 36-427)): 3 to 10 µM

C[C@H](Sc1nncn1C)c1cccc(N2Cc3cc(Cl)ccc3C2=O)c1 [Compound 164, (S)-5-chloro-2-(3-(1-((4-methyl-4H-1,2,4-triazol-3-yl)thio)ethyl)phenyl)isoindolin-1-one]
IC50 (Cbl-b [1]): ≤ 1 µM
IC50 (Cbl-b [2]; [3]): 0.301 to 1 µM
Kd (Cbl-b (residues 36-427)): 1 to 3 µM

C[C@@H](Sc1nncn1C)c1cccc(NC(=O)c2cc(C(=O)N3CC[C@H](O)C3)ccn2)c1 [Compound 161, 4-[[(3S)-3-hydroxypyrrolidin-1-yl]carbonyl]-N-[3-[(1R)-1-[(4-methyl-4H-1,2,4-triazol-3-yl)sulfanyl]ethyl]phenyl]pyridine-2-carboxamide]
IC50 (Cbl-b [1]): ≤ 10 µM
IC50 (Cbl-b [2]; [3]): 3 to 10 µM
Kd (Cbl-b (residues 36-427)): > 10 µM

C[C@H](Sc1nncn1C)c1cccc(NC(=O)c2cccc(OC(F)(F)F)c2)c1 [Compound 79, (S)-N-(3-(1-((4-methyl-4H-1,2,4-triazol-3-yl)thio)ethyl)phenyl)-3-(trifluoromethoxy)benzamide]
IC50 (Cbl-b [1]): ≤ 10 µM
IC50 (Cbl-b [2]; [3]): 3 to 10 µM
Kd (Cbl-b (residues 36-427)): 3 to 10 µM

CC(O)C1CN(C(=O)c2ccnc(C(=O)Nc3cccc([C@H](C)Cc4nncn4C)c3)c2)C1 (stereo partly drawn) [Compound 241, 4-(3-(1-hydroxyethyl)azetidine-1-carbonyl)-N-(3-((R)-1-(4-methyl-4H-1,2,4-triazol-3-yl)propan-2-yl)phenyl)picolinamide]
IC50 (Cbl-b [1]): ≤ 10 µM
IC50 (Cbl-b [2]; [3]): 3 to 10 µM
Kd (Cbl-b (residues 36-427)): < 0.1 µM
